Measured values reported in publication PMC3388080 (PLoS ONE, 2012).
Marks after values point to notes of the source that are not given here.

Tested on: male Sprague-Dawley rats
Test: EEG/EMG/Tcore/LMA telemetry sleep study 1 (SB-334867 vs ZOL)
Assay type: in vivo, rat
Procedure: All rodent electroencephalograph (EEG) studies were performed at SRI International. Three groups of eight male Sprague-Dawley rats (300±25 g; Charles River, Wilmington, MA) were implanted with chronic recording devices (F40-EET, Data Sciences Inc., St Paul, MN) for continuous recordings of EEG, electromyograph (EMG), core body temperature (Tcore), and LMA via telemetry as previously described. Data recording and scoring were performed as previously reported (see also Supplemental Material and Methods). The EEG and EMG data were scored in 10 sec epochs for waking (W), rapid eye movement sleep (REM), and non-REM sleep (NR). Tcore and LMA (counts per minute) were analyzed as hourly means. Data from the EEG studies are reported in hourly means such that the hourly time ZT1 refers to the hour between time points ZT0 and ZT1.
For each of the three separate studies, a repeated measures counter-balanced design was employed in which each rat received five separate dosings. […] All dosings were administered ip in a volume of 2 ml/kg. A minimum of 3 d elapsed between doses. Dosing occurred during the middle of the rats’ normal active period at the start of ZT19 and was typically completed within 10 min. Animals were continuously recorded for 6 h prior to dosing and for 18 h following dosing.

## Cc1nc2ccc(NC(=O)Nc3ccnc4cccnc34)cc2o1.Cl [SB-334867, 1-(2-methylbenzoxazol-6-yl)-3-[1], [5]naphthyridin-4-yl-urea hydrochloride]
3 and 30 mg/kg ip, first 4 and 6 h periods
  cumulative NR (in words): increased cumulative NR
6 h Average, 3 mg/kg ip
  NR bout duration: 1.17 ± 0.12 ^+
  REM bout duration: 1.28 ± 0.14^+
  W bout duration: 4.29 ± 0.34
6 h Average, 10 mg/kg ip
  NR bout duration: 1.00 ±0.12 ^+
  REM bout duration: 1.24 ±0.14^+
  W bout duration: 4.19 ±0.30
6 h Average, 30 mg/kg ip
  NR bout duration: 1.18 ± 0.12 ^+
  REM bout duration: 1.05 ± 0.08^+
  W bout duration: 3.87 ± 0.21
6 h Total, 3 mg/kg ip
  Number of NR bouts: 72.88 ± 5.37
  Number of REM bouts: 15.25 ±2.54
  Number of W bouts: 61.5 ±5.45
6 h Total, 10 mg/kg ip
  Number of NR bouts: 76.13 ± 4.99
  Number of REM bouts: 14.38 ± 1.55
  Number of W bouts: 64.13 ± 3.89
6 h Total, 30 mg/kg ip
  Number of NR bouts: 71.38 ± 2.20
  Number of REM bouts: 19.25 ± 1.50*^+
  Number of W bouts: 65.38 ± 3.54
ZT3, 10 and 30 mg/kg ip, vs vehicle
  NR during the subsequent light period (in words): NR decreased
ZT19, 3 mg/kg ip
  NR bout duration: 1.02 ± 0.14^+
  Number of NR bouts: 4.63 ± 2.07
  Number of REM bouts: 0.50 ± 0.33
  Number of W bouts: 2.88 ± 0.93
  REM bout duration: 1.21 ± 0.38^+
  W bout duration: 31.21 ± 8.79
ZT19, 10 mg/kg ip
  NR bout duration: 1.56 ± 0.59
  Number of NR bouts: 7.88 ± 2.52
  Number of REM bouts: 1.00 ± .050
  Number of W bouts: 6.25 ± 1.78
  REM bout duration: 0.95 ± 0.09
  W bout duration: 16.83 ± 6.40
ZT19, 30 mg/kg ip
  NR bout duration: 1.29 ± 0.24
  Number of NR bouts: 7.75 ± 1.93
  Number of REM bouts: 1.50 ± 0.46
  Number of W bouts: 5.75 ± 1.10
  REM bout duration: 1.04 ± 0.27
  W bout duration: 13.73 ± 6.71
ZT20, 3 mg/kg ip
  NR bout duration: 1.29 ± 0.15^+
  Number of NR bouts: 16.25 ± 2.43
  Number of REM bouts: 4.38 ± 1.21
  Number of W bouts: 12.25 ± 2.06
  REM bout duration: 1.34 ± 0.16^+
  W bout duration: 3.39 ± 0.78
ZT20, 10 mg/kg ip
  NR bout duration: 1.14 ± 0.12^+
  Number of NR bouts: 17.50 ± 3.34
  Number of REM bouts: 4.38 ± 1.19
  Number of W bouts: 13.88 ± 2.94
  REM bout duration: 1.16 ± 0.14^+
  W bout duration: 9.58 ± 7.23
ZT20, 30 mg/kg ip
  NR bout duration: 1.41 ± 0.26^+
  Number of NR bouts: 13.75 ± 1.79
  Number of REM bouts: 3.88 ± 0.99
  Number of W bouts: 12.63 ± 1.53
  REM bout duration: 1.27 ± 0.14^+
  W bout duration: 3.30 ± 0.88
ZT21, 3 mg/kg ip
  NR bout duration: 1.45 ± 0.28
  Number of NR bouts: 20.75 ± 2.40
  Number of REM bouts: 5.63 ± 0.65
  Number of W bouts: 16.38 ± 1.96
  REM bout duration: 1.28 ± 0.18
  W bout duration: 1.44 ± 0.20
ZT21, 10 mg/kg ip
  NR bout duration: 1.13 ± 0.25
  Number of NR bouts: 18.13 ± 2.03
  Number of REM bouts: 3.75 ± 0.82
  Number of W bouts: 14.88 ± 1.83
  REM bout duration: 1.38 ± 0.21
